Source: PMC11050823, “The Cyclic Imine Core Common to the Marine Macrocyclic Toxins Is Sufficient to Dictate Nicotinic Acetylcholine Receptor Antagonism” (Marine Drugs, 2024)
Read-outs that look alike come from different tables or passages of the source. Marks after values point to notes of the source that are not given here.

Experiments:
[1] = biological target: Torpedo muscle-type α1_2βγδ nAChR (Torpedo marmorata, UniProt P02711+Q6S3H8+Q6S3H9); assay: Manual TEVC recording of ACh-evoked currents in Xenopus oocytes micro-transplanted with Torpedo electrocyte membranes; format: cell-based; settings: concentration-inhibition curve, ACh 25 µM
Chain of Torpedo muscle-type α1_2βγδ nAChR (P02711 25-461): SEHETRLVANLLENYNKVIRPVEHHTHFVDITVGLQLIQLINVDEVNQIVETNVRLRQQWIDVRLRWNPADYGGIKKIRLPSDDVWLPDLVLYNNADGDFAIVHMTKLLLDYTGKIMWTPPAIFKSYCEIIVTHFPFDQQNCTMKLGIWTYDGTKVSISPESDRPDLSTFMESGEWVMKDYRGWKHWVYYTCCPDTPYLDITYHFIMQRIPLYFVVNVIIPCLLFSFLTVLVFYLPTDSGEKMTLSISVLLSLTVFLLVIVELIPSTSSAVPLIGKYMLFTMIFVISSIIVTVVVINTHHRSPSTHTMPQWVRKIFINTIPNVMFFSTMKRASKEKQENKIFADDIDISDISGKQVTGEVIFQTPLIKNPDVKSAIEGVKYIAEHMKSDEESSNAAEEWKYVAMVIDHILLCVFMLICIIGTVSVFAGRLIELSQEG
Chain of Torpedo muscle-type α1_2βγδ nAChR (Q6S3H9 18-505): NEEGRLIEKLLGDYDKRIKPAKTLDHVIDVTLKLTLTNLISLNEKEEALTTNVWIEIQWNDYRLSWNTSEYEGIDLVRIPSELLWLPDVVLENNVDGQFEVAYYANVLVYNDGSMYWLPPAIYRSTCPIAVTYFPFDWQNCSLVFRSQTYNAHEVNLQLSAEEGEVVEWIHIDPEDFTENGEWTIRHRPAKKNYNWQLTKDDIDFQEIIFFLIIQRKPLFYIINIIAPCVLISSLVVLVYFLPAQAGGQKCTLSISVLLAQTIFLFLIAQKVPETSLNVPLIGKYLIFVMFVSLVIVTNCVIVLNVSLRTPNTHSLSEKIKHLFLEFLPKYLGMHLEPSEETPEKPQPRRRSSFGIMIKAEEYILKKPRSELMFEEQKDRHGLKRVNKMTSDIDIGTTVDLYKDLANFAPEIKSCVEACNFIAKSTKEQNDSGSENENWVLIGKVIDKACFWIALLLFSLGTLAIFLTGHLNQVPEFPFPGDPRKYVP
Chain of Torpedo muscle-type α1_2βγδ nAChR (Q6S3H8 22-522): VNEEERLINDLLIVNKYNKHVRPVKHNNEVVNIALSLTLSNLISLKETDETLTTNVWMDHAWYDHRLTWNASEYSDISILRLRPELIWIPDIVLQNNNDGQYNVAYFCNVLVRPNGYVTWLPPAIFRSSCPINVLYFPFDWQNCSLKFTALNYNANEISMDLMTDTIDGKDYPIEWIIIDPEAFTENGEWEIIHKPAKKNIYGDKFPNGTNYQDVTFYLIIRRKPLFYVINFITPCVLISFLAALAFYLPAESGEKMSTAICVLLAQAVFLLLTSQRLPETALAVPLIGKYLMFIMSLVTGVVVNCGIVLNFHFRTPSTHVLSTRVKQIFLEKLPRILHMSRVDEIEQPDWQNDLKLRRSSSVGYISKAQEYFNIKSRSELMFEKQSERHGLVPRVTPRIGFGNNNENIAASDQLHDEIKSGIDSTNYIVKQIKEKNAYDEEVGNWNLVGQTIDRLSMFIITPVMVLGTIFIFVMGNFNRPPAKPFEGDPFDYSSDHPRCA
Chain of Torpedo muscle-type α1_2βγδ nAChR (Q6S3I0 25-493 partner): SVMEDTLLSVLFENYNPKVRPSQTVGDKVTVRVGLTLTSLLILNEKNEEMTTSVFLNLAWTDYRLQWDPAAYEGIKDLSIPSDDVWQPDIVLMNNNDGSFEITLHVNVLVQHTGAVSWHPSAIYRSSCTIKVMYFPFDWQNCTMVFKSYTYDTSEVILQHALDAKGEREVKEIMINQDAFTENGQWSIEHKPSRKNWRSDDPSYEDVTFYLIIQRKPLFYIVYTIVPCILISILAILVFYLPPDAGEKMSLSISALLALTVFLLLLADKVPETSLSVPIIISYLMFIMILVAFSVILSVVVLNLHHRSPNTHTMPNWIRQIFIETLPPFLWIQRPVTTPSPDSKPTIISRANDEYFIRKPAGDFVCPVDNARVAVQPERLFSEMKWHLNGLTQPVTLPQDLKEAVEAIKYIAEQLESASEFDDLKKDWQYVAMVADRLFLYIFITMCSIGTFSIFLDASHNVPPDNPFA
Source text: (§1) Functional analysis of the (±)-4 racemate and (+)-4 R and (−)-4 S enantiomers used either manual or automated two-electrode voltage-clamp (TEVC) recordings on Xenopus laevis oocytes at −60 mV holding membrane potential. The oocytes were either micro-transplanted with Torpedo α1_2βγδ-enriched electrocyte membranes or transfected with human α7 or α4β2-encoding cDNAs. When applied alone (see Experimental Procedures), none of the three spiroimines induced nAChR channel opening, thereby discarding any agonistic activity toward these nAChR subtypes. Instead, when applied together with ACh at its EC50 concentration for each nAChR subtype, all three spiroimines clearly behaved as nicotinic antagonists, whose potency depended on the receptor subtype examined (Figure 2; Table 1).
(§2) The sources for live animals and biological materials, the procedures for nAChR microtransplantation and expression in oocytes, and the procedures for manual (α1_2βγδ nAChR) and automated (α7 and α4β2 nAChRs) TEVC recording are detailed in Appendix C. […] Then, the oocyte was perfused for 45 s with the tested spiroimine at a given concentration, immediately followed by the co-application of ACh and the spiroimine at the same concentrations and times as indicated above. The oocyte was washed with Ringer’s solution, and then recovery of the ACh-evoked current was recorded.
(§3) The concentration–inhibition curves were analyzed as previously detailed using the equation I = Imax [L]^nH/(EC50^nH + [L]^nH) (Equation (1)), where I is the measured agonist-evoked current, [L] is the agonist concentration, EC50 is the agonist concentration that evoked half the maximal current (I^max), and nH is the Hill coefficient. For antagonist inhibition, current (I) values were normalized to the I^max value recorded from the same oocyte to yield the fractional (%) response data. IC50 values were established from the concentration–response curves by fitting to the equation F = 1/[1 + ([X]/IC50)^nH] (Equation (2)), where F is the fractional response obtained in the presence of the inhibitor at concentration [X], and IC50 is the inhibitor concentration reducing the ACh-evoked amplitude by half. Data analysis was performed without constraints as Log[spiroimine] versus response (three parameters), with a Hill slope ~1. Statistical significance of differences between the control and test values was assessed using either the two-tailed Student’s “t” test or the Kolmogorov–Smirnov two-sample test and p < 0.05.
(§4) Torpedo membranes containing α1_2βγδ nAChR were microtransplanted into the oocyte cytoplasm by microinjecting a membrane suspension (50 nL at 2.5 µg/µL, i.e., 125 ng total protein, in 5 mM glycine) with an electronic micro-injector (Nanoliter2000 Micro4 Controller, World Precision Instruments Inc., Hertfordshire, UK) mounted on a microscope. Human α7 and α4β2 nAChRs were expressed through microinjection, into the oocyte nucleus, of α7 mRNA and of a 1:1 (w/w) mixture of α4 and β2 cDNAs (a ratio favoring expression of the α4_3β2_2 population over the α4_2β2_3 population) (50 nL at 1 µg/µL) in a pRc/CMV expression vector (Invitrogen). Oocytes were maintained at 18 °C and TEVC recordings were performed 1–4 days later in a room with controlled temperature (20 °C).
Manual TEVC on α1_2βγδ nAChR oocytes was carried out using an OC-725B amplifier (Warner Instrument Corp., Hamden, CT, USA). Voltage and current borosilicate glass microelectrodes were filled with KCl 3 M and had 0.5–1.5 MΩ tip resistances. For data acquisition and recording, a pCLAMP-9/Digidata-1322A system (Molecular Devices, San Jose, CA, USA) was used. The oocyte recording chamber of 300 μL was superfused at a high rate (8–12 mL.min^−1) with a modified oocyte Ringer’s solution made of HEPES 5 mM pH 7.4, NaCl 100 mM, KCl 2.8 mM, and BaCl2 0.3 mM, where BaCl2 substitution to the original CaCl2 prevents secondary activation of a Ca^2+-dependent Cl^− current. […]

[2] = biological target: T1, A-AChBP (Aplysia californica, UniProt Q8WSF8); assay: Scintillation proximity assay, competition against [3H]methyllycaconitine binding to A-AChBP; set-up: made in house; host or cells: stably transfected HEK293S-GnTI- cells
Description: (§5) Equilibrium dissociation constants were determined either from ratios (Kd/(koff/kon)) of rate constants determined using multiple kinetic means (kon, koff, koff/GAL) or directly from stopped-flow measurements (Kd/SFeq, Kd/SPAeq) (see Experimental Procedures).
(§6) The procedures for stable expression and purification of A- and L-AChBPs are described in Appendix D. Rate constants for association (kon) and dissociation (koff) were determined by multiple kinetic means, largely as previously described. Measurement of kon and koff values entailed the direct admixture of reactants and monitoring the quenching of AChBP native Trp fluorescence. Individual rate constants were determined from linear regression of the experimental mono-exponential decay of Trp fluorescence intensity (kobs) using the linear “approach-to-equilibrium” relationship kobs = kon[spiroimine] + koff (Equation (3)). Additional measurements of koff (koff/GAL) employed stopped-flow measurement of the rate of occupation of free AChBP binding sites by a competing ligand (gallamine, used in large excess relative to its Kd) to form a non-quenching gallamine-AChBP complex. Equilibrium dissociation constants were determined either from the ratios of rate constants (Kd/(koff/kon)), or from stopped-flow measurements of the rates of gallamine or epibatidine binding to pre-equilibrated spiroimine-AChBP complexes formed using increasing spiroimine concentrations (Kd/SFeq), or by the scintillation proximity assay (SPA) where spiroimine competition against the binding of [^3H]epibatidine (to L-AChBP) or [^3H]methyllycaconitine (to A-AChBP) was monitored at equilibrium (Kd/SPAeq). […] The time course of [^3H]ligand binding was monitored over several hours.
(§7) A- and L-AChBP, flanked with an N-terminal FLAG epitope with residues numbered (-8)[…](0), were expressed as soluble, exported proteins using synthetic cDNA and stably-transfected HEK293S-GnTI^− cells selected for G418 resistance, and cultured in Dulbecco’s modified Eagle’s medium (MediaTech CellGro, Albany, NY, USA) containing fetal bovine serum (FBS) 2% (v/v). […]
Target sequence in this assay (Q8WSF8 entry or part of it): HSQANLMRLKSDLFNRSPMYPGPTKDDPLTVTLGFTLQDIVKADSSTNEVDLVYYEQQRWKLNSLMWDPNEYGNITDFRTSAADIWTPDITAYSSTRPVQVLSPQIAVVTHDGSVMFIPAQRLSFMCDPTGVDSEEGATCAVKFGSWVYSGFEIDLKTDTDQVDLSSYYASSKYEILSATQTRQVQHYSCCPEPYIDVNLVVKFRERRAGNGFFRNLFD

[3] = biological target: T1, A-AChBP; assay: Stopped-flow Trp fluorescence kinetic and equilibrium binding to purified A-AChBP; settings: A-AChBP
Description: as §5, §6
(§8) A- and L-AChBP, flanked with an N-terminal FLAG epitope with residues numbered (-8)[…](0), were expressed as soluble, exported proteins using synthetic cDNA and stably-transfected HEK293S-GnTI^− cells selected for G418 resistance, and cultured in Dulbecco’s modified Eagle’s medium (MediaTech CellGro, Albany, NY, USA) containing fetal bovine serum (FBS) 2% (v/v). The conditioned medium was collected every 1–3 days for up to 4 weeks, supplemented with NaN3 0.02% (w/v) and stored at 4 °C. AChBPs were purified on immobilized anti-FLAG M2 antibody (Sigma-Aldrich) with elution using FLAG peptide 100 μg/mL in TRIS-HCl 50 mM pH 7.4, NaCl 150 mM, NaN3 0.02% (w/v). Purified proteins were dialyzed against the same buffer, concentrated by ultrafiltration, filtered on a 0.22 µm membrane, and stored on ice at 4 °C.
Target sequence in this assay (Q8WSF8 entry or part of it): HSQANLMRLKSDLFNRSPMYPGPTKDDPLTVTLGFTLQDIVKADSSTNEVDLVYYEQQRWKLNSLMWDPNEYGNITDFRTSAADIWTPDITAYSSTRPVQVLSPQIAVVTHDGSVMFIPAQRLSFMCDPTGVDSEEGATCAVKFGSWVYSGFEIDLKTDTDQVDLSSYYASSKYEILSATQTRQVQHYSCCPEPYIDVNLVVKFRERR

[4] = biological target: T2, L-AChBP (Lymnaea stagnalis, UniProt P58154); assay: Scintillation proximity assay, competition against [3H]epibatidine binding to L-AChBP
T2 construct: made in house; host or cells: stably transfected HEK293S-GnTI- cells
T2 sequence (P58154 20-229): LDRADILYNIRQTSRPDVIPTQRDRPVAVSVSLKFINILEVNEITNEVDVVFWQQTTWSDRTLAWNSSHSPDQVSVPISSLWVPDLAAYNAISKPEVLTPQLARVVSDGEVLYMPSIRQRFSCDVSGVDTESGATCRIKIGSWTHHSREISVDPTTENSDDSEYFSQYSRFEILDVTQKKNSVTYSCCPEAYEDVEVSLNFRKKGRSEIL
Description: as §5, §6, §7

[5] = biological target: T2, L-AChBP; assay: Stopped-flow Trp fluorescence kinetic and equilibrium binding to purified L-AChBP; settings: L-AChBP
Description: as §5, §6, §8

[6] = biological target: T3, human neuronal α4β2 nAChR (Homo sapiens, UniProt P17787+P43681); assay: Automated TEVC recording of ACh-evoked currents in Xenopus oocytes expressing human α4β2 nAChR; format: cell-based; settings: 95% confidence interval in parentheses
T3 construct: expressed in transfected cells; host or cells: Xenopus laevis oocytes; cDNAs in pRc/CMV vector
T3 sequence (P43681 29-627 limits assumed): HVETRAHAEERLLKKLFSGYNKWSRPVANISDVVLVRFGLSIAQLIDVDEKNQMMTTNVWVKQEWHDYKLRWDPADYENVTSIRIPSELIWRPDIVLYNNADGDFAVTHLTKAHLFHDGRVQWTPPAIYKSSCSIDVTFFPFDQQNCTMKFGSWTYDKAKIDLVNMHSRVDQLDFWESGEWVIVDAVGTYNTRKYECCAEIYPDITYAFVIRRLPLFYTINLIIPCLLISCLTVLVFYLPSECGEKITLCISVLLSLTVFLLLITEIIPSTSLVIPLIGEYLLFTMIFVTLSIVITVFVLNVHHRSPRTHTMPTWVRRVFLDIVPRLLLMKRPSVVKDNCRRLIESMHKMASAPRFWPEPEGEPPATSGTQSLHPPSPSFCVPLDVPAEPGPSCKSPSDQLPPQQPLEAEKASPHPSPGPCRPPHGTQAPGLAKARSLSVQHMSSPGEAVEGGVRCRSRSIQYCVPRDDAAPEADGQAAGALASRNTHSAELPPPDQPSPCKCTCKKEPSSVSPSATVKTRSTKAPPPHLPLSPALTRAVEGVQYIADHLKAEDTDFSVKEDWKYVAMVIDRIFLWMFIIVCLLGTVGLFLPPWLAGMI
T3 sequence (P17787 26-502): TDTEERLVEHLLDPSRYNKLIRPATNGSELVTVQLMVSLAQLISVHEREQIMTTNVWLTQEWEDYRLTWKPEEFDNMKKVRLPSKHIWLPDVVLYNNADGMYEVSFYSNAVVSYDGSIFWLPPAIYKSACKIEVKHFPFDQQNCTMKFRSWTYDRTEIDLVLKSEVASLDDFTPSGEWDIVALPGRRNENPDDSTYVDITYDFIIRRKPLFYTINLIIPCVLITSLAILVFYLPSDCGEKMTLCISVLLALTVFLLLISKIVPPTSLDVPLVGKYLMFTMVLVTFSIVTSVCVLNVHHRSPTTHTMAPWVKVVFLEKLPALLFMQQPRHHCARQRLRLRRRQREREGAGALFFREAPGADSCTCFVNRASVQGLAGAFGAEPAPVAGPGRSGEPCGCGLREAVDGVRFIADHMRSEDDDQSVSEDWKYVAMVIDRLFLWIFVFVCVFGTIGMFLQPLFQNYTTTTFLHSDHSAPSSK
Source text: as §1, §2, §3, §4
(§9) Automated TEVC on α7 and α4β2 nAChR oocytes was performed using a HiClamp system (Multi Channel Systems, GmbH., Reutlingen, Germany). Oocytes free of follicular cells were transferred from the 96-wells of the oocyte microplate to a recording basket carrying the reference bath electrode. Oocytes were automatically impaled and clamped at a holding potential of −60 mV using borosilicate glass microelectrodes of 0.5–5 MΩ tip resistances, filled with a 1:1 (v/v) mixture of KCl 1 M and KAc 1 M. The clamped oocytes were exposed twice or thrice to ACh by incubation into a well containing ACh (at the EC50 for the assayed nAChR subtype) to obtain a control IACh peak amplitude. […]

[7] = biological target: T4, human neuronal α7 nAChR (Homo sapiens, UniProt P36544); assay: Automated TEVC recording of ACh-evoked currents in Xenopus oocytes expressing human α7 nAChR; format: cell-based
T4 construct: expressed in transfected cells; host or cells: Xenopus laevis oocytes
T4 sequence (P36544 23-502): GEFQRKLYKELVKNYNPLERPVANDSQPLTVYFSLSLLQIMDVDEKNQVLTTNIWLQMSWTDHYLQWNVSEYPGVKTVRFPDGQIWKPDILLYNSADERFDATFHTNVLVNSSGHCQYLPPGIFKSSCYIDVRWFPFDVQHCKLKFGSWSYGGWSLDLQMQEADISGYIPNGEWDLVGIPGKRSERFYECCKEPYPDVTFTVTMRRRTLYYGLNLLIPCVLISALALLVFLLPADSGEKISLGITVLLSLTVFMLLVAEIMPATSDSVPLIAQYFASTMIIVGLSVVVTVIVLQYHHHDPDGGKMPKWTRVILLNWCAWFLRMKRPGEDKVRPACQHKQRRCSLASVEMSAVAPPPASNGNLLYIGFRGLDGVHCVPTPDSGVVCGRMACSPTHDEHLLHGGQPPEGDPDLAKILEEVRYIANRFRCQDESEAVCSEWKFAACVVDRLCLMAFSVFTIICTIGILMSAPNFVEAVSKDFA
Source text: as §1, §2, §3, §4, §9

[8] = biological target: nicotinic acetylcholine receptors; set-up: method as in PMID 35049904; settings: cited from earlier work
[9] = quenching of native Trp fluorescence
[10] = quenching of native Trp fluorescence, read-out: koff (converted)
[11] = stopped-flow with competing gallamine in large excess, read-out: koff/GAL (converted)

## CC1=NCCC[C@@]12CCCCC21OCCO1 [Spiroimine (−)-4 S, 7-methyl-1,4-dioxa-8-azadispiro[4.0.5.4]pentadec-7-ene]
[1]
  Hill Slope: ~1 ^b
[2]
  Kd: 2400 ± 500 nM
[3]; [9]
  kon: 1.02e+08 M⁻¹ s⁻¹
[3]; [10]
  koff: 433 s⁻¹
[3]; [11]
  koff: 400 s⁻¹
[3]; Kd/(koff/kon), calculated from the rate constants
  Kd: 4300 nM
[3]; Kd/SFeq, stopped-flow on pre-equilibrated complexes, single experiment in triplicate
  Kd: 5400 nM
[4]
  Kd: 3400 nM
[5]; calculated from the rate constants, read-out: Kd/(koff/kon)
  Kd: 410 nM
[5]; [9]
  kon: 1.3e+08 M⁻¹ s⁻¹
[5]; [10]
  koff: 53.3 s⁻¹
[5]; stopped-flow on pre-equilibrated complexes, single experiment in triplicate, read-out: Kd/SFeq
  Kd: 320 nM
[5]; [11]
  koff: 103 s⁻¹
[5]; read-out: Kd values (range of magnitude)
  Kd: ~100 nM
[6]; concentration-inhibition curve, ACh 150 µM
  Hill Slope: 0.53 (0.32–0.74) ^b
[6]; inhibition of ACh-evoked current, ACh 150 µM (EC50), −60 mV
  IC50: 1410 nM
[7]; 10 µM spiroimine, wash with Ringer's solution
  recovery of the ACh-evoked current after washout of bound spiroimine: fast and complete
[7]; concentration-inhibition curve, ACh 100 µM, 95% confidence interval in parentheses
  Hill Slope: 0.58 (0.44–0.72) ^b
[7]; inhibition of ACh-evoked current, ACh 100 µM (EC50), −60 mV, 95% confidence interval in parentheses
  IC50: 1450 nM

## CN(C)C1CSSC1 [nereistoxin, N,N-dimethyl-1,2-dithiolan-4-amine]
[8]
  IC50 values as nicotinic antagonist: sub-millimolar
